Consider 21 compounds from ChEMBL document CHEMBL3352501, “SAR analysis of new anti-TB drugs currently in pre-clinical and clinical development” (Eur J Med Chem, 2014).

Data set [1] relates to Mycobacterium tuberculosis. The data set can be described thus: Antitubercular activity against Mycobacterium tuberculosis assessed as growth inhibition. The class given is functional.
Data set [2] has as its system Mycobacterium tuberculosis. In words: Antitubercular activity against Mycobacterium tuberculosis H37Rv assessed as growth inhibition. The class given is functional.
The test system of data set [3] is Mycobacterium tuberculosis. The data set can be described thus: Antitubercular activity against Mycobacterium tuberculosis infected in mouse assessed as reduction in colony formation at 20 mg/kg for 20 days. The format is functional.
Data set [4] relates to Mycobacterium tuberculosis. In words: Antitubercular activity against XDR clinical isolates Mycobacterium tuberculosis […] assessed as growth inhibition in presence of […] clavulanate. The class given is functional.
The test system of data set [5] is Mycobacterium tuberculosis. In words: Antitubercular activity against Mycobacterium tuberculosis infected in mouse J774A.1 assessed as reduction in bacterial count. The format is functional.
Data set [6] concerns Mycobacterium tuberculosis. In words: Antitubercular activity against Mycobacterium tuberculosis H37Rv assessed as growth inhibition in presence of […] clavulanate. The class given is functional.
In data set [7] the test system is Mycobacterium tuberculosis. In words: Antitubercular activity against Mycobacterium tuberculosis assessed as growth inhibition by alamar blue assay. The format is functional. A general note: Resazurin is reduced to fluorescent resorufin, in cell work by metabolically active cells.
For data set [8], the system named is Mycobacterium tuberculosis. In words: Antitubercular activity against drug-susceptible Mycobacterium tuberculosis clinical isolates assessed as growth inhibition. The format is functional.
Data set [9] relates to Mycolicibacterium smegmatis. In words: Antimicrobial activity against Mycobacterium smegmatis. The format is functional.
Data set [10] relates to Mycolicibacterium smegmatis. The data set can be described thus: Antimicrobial activity against Mycobacterium smegmatis assessed as intracellular bacterial killing. The format is functional.
For data set [11], the system named is Mycobacterium avium. The data set can be described thus: Antimycobacterial activity against Mycobacterium avium assessed as growth inhibition. The class given is functional.
The nature of data set [12]: Oral bioavailability in dog. The format is ADME, organism-based, Canis lupus familiaris. The note with it: in vivo.

≈ marks a conversion by molar mass, not a printed value.

By MIC90 is commonly meant an inhibitory concentration at the 90% level, which refers to growth in some studies and to a panel of isolates in others. Turning to `COc1c(N2CC3(CC3)[C@](C)(N)C2)c(F)cc2c(=O)c(C(=O)O)cn([C@@H]3C[C@@H]3F)c12`, in [1], the MIC90 was determined as 0.06 µg/mL (≈ 0.143 µM).

Broadly, the MIC is the lowest concentration that inhibits growth of the organism. For `COc1ncccc1Nc1cc2nc3ccccc3n(-c3ccc(OC(F)(F)F)cc3)c-2c/c1=N\C1CCC(OC)CC1` (stereo not drawn), the MIC in [2] is above 25000 ng/mL. The log10cfu in data set [3] stood at 4.66.

For the compound `C[C@@]1(COc2ccc(N3CCC(Oc4ccc(OC(F)(F)F)cc4)CC3)cc2)Cn2c([N+](=O)[O-])cnc2O1`, in data set [2], the MIC turned out to be 12 ng/mL.

With `O=c1nc(N2CCN(CCC3CCCCC3)CC2)sc2c([N+](=O)[O-])cc(C(F)(F)F)cc12`, in [2], the MIC is 0.19 ng/mL.

For the compound `CCCCCCCN1CCN(c2nc(=O)c3cc(C(F)(F)F)cc([N+](=O)[O-])c3s2)CC1`, the minimal inhibitory concentration (MIC) in [2] worked out at 0.19 ng/mL.

For the compound `O=c1nc(N2CCN(CCCCOc3ccccc3)CC2)sc2c([N+](=O)[O-])cc(C(F)(F)F)cc12`, in [2], the minimum inhibitory concentration (MIC) stood at 0.19 ng/mL.

Regarding `O=c1nc(N2CCN(CCCCc3ccccc3)CC2)sc2c([N+](=O)[O-])cc(C(F)(F)F)cc12`, the MIC in [2] came out at 0.19 ng/mL.

`CC1(C)S[C@@H]2[C@H](NC(=O)[C@H](N)c3ccc(O)cc3)C(=O)N2[C@H]1C(=O)O` [AMOXICILLIN]: the MIC in data set [4] stood at 0.23 µg/mL; in [6] it was 0.32 µg/mL. Moreover, in data set [5], the “fold change (FC)” value was found to be 1.5.

For `COc1nc2ccc(Br)cc2cc1[C@@H](c1ccccc1)[C@@](O)(CCN(C)C)c1cccc2ccccc12` [BEDAQUILINE], in data set [7], the MBC90 was determined as 2 µg/mL (≈ 3.6 µM) and the WCC90 was found to be 1 µg/mL. The MIC in data set [8] stood at 0.002 µg/mL (≈ 0.0036 µM).

With `C[C@H]1COC2(CCN(c3nc(=O)c4cc(C(F)(F)F)cc([N+](=O)[O-])c4s3)CC2)O1` [BTZ-043], the minimal inhibitory concentration (MIC) in data set [2] was 1 ng/mL; in data set [9], 4 ng/mL (≈ 0.00927 µM); in data set [10], below 0.01 µg/mL.

As to `CC(C)/N=c1\cc2n(-c3ccc(Cl)cc3)c3ccccc3nc-2cc1Nc1ccc(Cl)cc1` [CLOFAZIMINE], the MIC in data set [2] worked out at 1210 ng/mL; in data set [1] it was 0.12 µg/mL (≈ 0.253 µM). Besides, the log10cfu in data set [3] is recorded as 6.33.

`NNC(=O)c1ccncc1` [ISONIAZID]: in data set [10], the minimum inhibitory concentration (MIC) is 0.1 µg/mL (≈ 0.729 µM).

Turning to `CC(=O)NC[C@H]1CN(c2ccc(N3CCOCC3)c(F)c2)C(=O)O1` [LINEZOLID], the MIC in [1] was below 1 µg/mL.

For `O=c1nc(N2CCN(CC3CCCCC3)CC2)sc2c([N+](=O)[O-])cc(C(F)(F)F)cc12` [MACOZINONE], the MIC in data set [2] is 0.19 ng/mL.

Consider `O=C([C@@H](O)CO)N1CC=C(c2c(F)cc(N3C[C@H](COc4ccon4)OC3=O)cc2F)CC1` [POSIZOLID], for which the MIC in [2] was found to be 1000 ng/mL.

In the case of `O=[N+]([O-])c1cn2c(n1)OC[C@@H](OCc1ccc(OC(F)(F)F)cc1)C2` [PRETOMANID], in [2], the minimum inhibitory concentration (MIC) worked out at 130 ng/mL.

As to `CO[C@H]1/C=C/O[C@@]2(C)Oc3c(C)c(O)c4c(c3C2=O)C2=NC3(CCN(CC(C)C)CC3)NC2=C(NC(=O)/C(C)=C\C=C\[C@H](C)[C@H](O)[C@@H](C)[C@@H](O)[C@@H](C)[C@H](OC(C)=O)[C@@H]1C)C4=O` [RIFABUTIN], the minimal inhibitory concentration (MIC) in [2] was found to be 15 ng/mL; in data set [11], 0.06 µg/mL (≈ 0.0708 µM).

Consider `CO[C@H]1/C=C/O[C@@]2(C)Oc3c(C)c(O)c4c(O)c(c(/C=N/N5CCN(C)CC5)c(O)c4c3C2=O)NC(=O)/C(C)=C\C=C\[C@H](C)[C@H](O)[C@@H](C)[C@@H](O)[C@@H](C)[C@H](OC(C)=O)[C@@H]1C` [RIFAMPIN], for which the minimum inhibitory concentration (MIC) in [10] was below 1 µg/mL.

The bioavailability is the share of a dose that reaches the circulation, judged against a reference dose that is usually intravenous. Read a low bioavailability as little systemic uptake. `CC(C)=CCC/C(C)=C/CNCCNC1C2CC3CC(C2)CC1C3` (stereo not drawn) [SQ109]: the minimal inhibitory concentration (MIC) in data set [8] turned out to be 0.2 µg/mL (≈ 0.605 µM). The compound further yielded a bioavailability in data set [12] of 2.4%.

On to `CC(=O)NC[C@H]1CN(c2ccc(N3CCSCC3)c(F)c2)C(=O)O1` [SUTEZOLID], for which the MIC in data set [1] was 0.125 µg/mL (≈ 0.354 µM).

As for `CCc1nc2ccc(Cl)cn2c1C(=O)NCc1ccc(N2CCC(c3ccc(OC(F)(F)F)cc3)CC2)cc1` [TELACEBEC], in data set [2], the MIC was determined as 2.7 nM. The MIC90 in [4] is below 0.43 nM.
